Experimental data from patent publication EP2236511A2, “LIGANDS OF ALPHA-ADRENOCEPTORS AND OF DOPAMINE, HISTAMINE, IMIDAZOLINE AND SEROTONIN RECEPTORS AND THE USE THEREOF” (priority 2007, dated 2009).
Where a name gives a salt, the structure may show the parent alone. Read-outs that look alike come from different tables or passages of the source.

Key:
human 5-HT7 receptor = target: T1, human 5-HT7 receptor (Homo sapiens, UniProt P34969); assay: Radioligand binding to serotonin receptor 5-HT7 ([3H] Lysergic acid diethylamide, CHO membranes); settings: for 5-HT7 % inhibition: 10 µM ligand; for inhibition at 10 µM: read-out: 5-HT7 % inhibition
T1 construct: expressed in transfected cells; host or cells: CHO
T1 sequence (P34969 whole entry): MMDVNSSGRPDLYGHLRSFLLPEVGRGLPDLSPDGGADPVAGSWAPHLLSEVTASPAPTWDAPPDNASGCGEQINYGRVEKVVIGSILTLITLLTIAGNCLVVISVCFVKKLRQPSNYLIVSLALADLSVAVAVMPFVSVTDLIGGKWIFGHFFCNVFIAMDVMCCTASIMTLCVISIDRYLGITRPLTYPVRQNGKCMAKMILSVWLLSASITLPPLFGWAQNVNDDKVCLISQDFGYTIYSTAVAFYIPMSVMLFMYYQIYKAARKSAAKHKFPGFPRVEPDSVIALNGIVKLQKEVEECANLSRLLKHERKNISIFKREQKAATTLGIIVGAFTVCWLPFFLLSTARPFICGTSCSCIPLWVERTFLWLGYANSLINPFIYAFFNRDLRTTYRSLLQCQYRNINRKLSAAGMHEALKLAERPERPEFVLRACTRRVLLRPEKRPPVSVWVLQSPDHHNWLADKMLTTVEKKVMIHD
Excerpt: For this purpose sDNA of human 5-HT7 receptor is expressed in CHO cells as it was described in [Shen Y, Monsma FJ Jr, Metcalf MA, Jose PA, Hamblin MW, and Sibley DR. […] J. Biol. Chem. 1993, 268, 18200 - 18204]. […] J. Pharmacol. Exp. Ther. 1994, 268:1403-1410]. […] Methiothepin is used as positive control.

[1] = target: T2, recombinant human 5-HT2A receptor (Homo sapiens, UniProt P28223); assay: Radioligand binding to serotonin receptor 5-HT2A ([3H] Ketanserin, CHO-K1 membranes); settings: 10 µM ligand
T2 construct: expressed in transfected cells; host or cells: CHO-K1
T2 sequence (P28223 whole entry): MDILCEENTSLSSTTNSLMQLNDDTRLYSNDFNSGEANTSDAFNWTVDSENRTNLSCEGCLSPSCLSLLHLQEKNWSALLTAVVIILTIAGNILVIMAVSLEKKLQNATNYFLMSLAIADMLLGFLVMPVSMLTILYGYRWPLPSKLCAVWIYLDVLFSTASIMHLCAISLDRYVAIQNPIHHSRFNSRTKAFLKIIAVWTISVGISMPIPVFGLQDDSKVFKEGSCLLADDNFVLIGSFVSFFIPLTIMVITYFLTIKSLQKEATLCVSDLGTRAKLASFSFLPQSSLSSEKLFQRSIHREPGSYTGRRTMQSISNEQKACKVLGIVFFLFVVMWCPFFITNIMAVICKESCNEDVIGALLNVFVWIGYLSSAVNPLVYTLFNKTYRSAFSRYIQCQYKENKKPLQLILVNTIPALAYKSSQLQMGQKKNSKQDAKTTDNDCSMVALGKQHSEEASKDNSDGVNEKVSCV
Excerpt: 9-C. […] J Neurochem. […] Ketanserin is used as positive control.

recombinant human 5-HT1A = target: T3, recombinant human 5-HT1A (Homo sapiens, UniProt P08908); assay: Radioligand binding to serotonin receptor 5-HT1A ([3H] 8-OH-DPAT, CHO membranes); settings: for 5-HT1A % inhibition: 10 µM ligand; for inhibition at 10 µM: read-out: 5-HT1A % inhibition
T3 construct: expressed in transfected cells; host or cells: CHO
T3 sequence (P08908 1-422): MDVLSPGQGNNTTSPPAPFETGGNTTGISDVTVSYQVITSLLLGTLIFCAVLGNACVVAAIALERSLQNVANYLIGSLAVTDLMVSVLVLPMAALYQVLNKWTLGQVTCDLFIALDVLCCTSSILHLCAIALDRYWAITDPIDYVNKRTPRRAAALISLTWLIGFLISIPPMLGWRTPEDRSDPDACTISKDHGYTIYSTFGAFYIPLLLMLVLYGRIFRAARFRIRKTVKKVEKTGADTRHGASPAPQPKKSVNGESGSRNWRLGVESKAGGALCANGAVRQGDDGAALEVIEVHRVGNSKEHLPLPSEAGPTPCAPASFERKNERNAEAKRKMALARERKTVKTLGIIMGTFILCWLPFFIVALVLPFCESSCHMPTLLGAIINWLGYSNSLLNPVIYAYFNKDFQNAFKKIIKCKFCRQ
Excerpt: J Pharmacol Exp Ther. 306(1): 301-309, 2003]. […] Metergoline is used as positive control.

[2] = target: T4, serotonin receptor 5-HT1B (Rattus norvegicus, UniProt P28564); assay: Radioligand binding to serotonin receptor 5-HT1B ([125I] cyanopindolol, rat brain cortex membranes); settings: for 5-HT1B % inhibition: 10 µM ligand; for inhibition at 10 µM: read-out: 5-HT1B % inhibition
T4 construct: membrane species are prepared from rat brains (Wistar) by homogenization of species of rat brain-cortices; from tissue; host or cells: rat (Wistar) brain cortex
T4 sequence (P28564 whole entry): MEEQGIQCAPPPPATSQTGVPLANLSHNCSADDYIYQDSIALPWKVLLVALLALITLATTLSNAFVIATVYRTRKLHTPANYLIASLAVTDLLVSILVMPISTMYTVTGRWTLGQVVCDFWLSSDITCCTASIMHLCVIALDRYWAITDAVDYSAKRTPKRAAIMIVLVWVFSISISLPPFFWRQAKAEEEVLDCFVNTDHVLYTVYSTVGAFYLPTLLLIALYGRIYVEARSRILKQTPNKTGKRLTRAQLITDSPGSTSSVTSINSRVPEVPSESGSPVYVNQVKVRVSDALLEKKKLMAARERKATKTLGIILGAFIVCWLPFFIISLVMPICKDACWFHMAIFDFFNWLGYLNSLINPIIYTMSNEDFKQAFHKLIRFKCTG
Excerpt: Serotonin is used as positive control.

[3] = target: T5, recombinant human 5-HT6 receptor (Homo sapiens, UniProt P50406); assay: Radioligand binding to serotonin receptor 5-HT6 ([3H] Lysergic acid diethylamide, HeLa membranes); settings: for 5-HT6 % inhibition: 10 µM ligand
T5 construct: expressed in transfected cells; host or cells: HeLa
T5 sequence (P50406 whole entry): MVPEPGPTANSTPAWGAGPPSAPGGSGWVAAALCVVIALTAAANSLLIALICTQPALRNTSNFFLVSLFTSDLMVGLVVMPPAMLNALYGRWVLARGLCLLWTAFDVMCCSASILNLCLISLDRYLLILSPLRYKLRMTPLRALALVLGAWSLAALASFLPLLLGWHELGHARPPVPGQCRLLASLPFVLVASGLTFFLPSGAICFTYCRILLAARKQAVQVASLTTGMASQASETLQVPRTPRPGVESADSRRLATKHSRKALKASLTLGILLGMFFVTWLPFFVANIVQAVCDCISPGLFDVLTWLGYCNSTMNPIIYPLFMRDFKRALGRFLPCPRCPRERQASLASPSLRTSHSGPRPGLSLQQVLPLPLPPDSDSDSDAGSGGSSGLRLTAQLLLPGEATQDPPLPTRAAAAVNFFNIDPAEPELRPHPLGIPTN
Excerpt: Mol Pharmacol. 43:320-327, 1993]. […] Methiothepin is used as positive control.

[4] = target: T6, recombinant human 5-HT2B receptor (Homo sapiens, UniProt P41595); assay: Radioligand binding to serotonin receptor 5-HT2B ([3H] Lysergic acid diethylamide, CHO-K1 membranes)
T6 construct: expressed in transfected cells; host or cells: CHO-K1
T6 sequence (P41595 whole entry): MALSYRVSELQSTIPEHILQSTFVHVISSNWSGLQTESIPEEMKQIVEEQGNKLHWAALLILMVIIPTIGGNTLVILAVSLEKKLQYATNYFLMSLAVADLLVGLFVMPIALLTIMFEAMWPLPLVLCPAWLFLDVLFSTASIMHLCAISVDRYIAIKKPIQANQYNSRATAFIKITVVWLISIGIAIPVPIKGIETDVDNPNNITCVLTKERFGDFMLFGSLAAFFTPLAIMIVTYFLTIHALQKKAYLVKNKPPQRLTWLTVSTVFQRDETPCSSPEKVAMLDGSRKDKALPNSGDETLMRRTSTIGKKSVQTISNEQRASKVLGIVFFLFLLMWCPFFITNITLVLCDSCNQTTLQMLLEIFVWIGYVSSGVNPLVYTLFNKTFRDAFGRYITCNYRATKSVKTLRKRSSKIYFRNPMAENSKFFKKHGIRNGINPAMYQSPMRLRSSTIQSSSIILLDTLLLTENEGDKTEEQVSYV
Method: For this purpose membrane species are prepared from CHO-K1 cells comprising recombinant human 5-HT2B receptor by homogenization of recombinant cells in glass homogenizer with the subsequent separation of plasmatic membranes from cell nuclei, mitochondrias and cell wreckages by differential centrifugation. […] After incubation the samples are filtered in vacuo on glass-microfiber filters G/F (Millipor, USA), filters are washed three times with cold solution of medium and radioactivity is measured by scintillation counter MicroBeta 340 (Perkin Elmer, USA). […] Ketanserin is used as positive control. The tested compounds' binding to the receptor is determined by their ability to displace the radioligand and is expressed in percent of displacement (%I). Values of %I are calculated according to the following equation: %I = (TA-CA)/(TA-NA)*100, [formula] wherein: TA - is the overall radioactivity in the presence of radioligand only, CA - is the radioactivity in the presence of radioligand and tested compound and NA - is the radioactivity in the presence of radioligand and Serotonin (10 µM).

[5] = target: T7, recombinant human 5-HT2C receptor (Homo sapiens, UniProt P28335); assay: Radioligand binding to serotonin receptor 5-HT2C ([3H] Mesulergine, CHO-K1 membranes)
T7 construct: expressed in transfected cells; host or cells: CHO-K1
T7 sequence (P28335 33-458): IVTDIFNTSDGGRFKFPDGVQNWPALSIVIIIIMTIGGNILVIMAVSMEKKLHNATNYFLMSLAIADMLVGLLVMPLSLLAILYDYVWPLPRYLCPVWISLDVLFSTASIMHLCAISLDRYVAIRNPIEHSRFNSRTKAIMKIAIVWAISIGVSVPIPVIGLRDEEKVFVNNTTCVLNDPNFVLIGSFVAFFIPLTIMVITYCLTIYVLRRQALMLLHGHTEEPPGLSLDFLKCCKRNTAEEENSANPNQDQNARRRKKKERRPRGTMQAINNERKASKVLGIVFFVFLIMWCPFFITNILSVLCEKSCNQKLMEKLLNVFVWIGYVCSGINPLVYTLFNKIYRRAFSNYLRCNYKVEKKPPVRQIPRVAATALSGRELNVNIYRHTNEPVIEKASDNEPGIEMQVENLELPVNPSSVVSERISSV
Excerpt: J Neurochem. 69: 1449 - 1458, 1997]. […] SB242084 is used as positive control.

[6] = read-out: 5-HT2B % inhibition, 10 µM ligand

| Structure (SMILES) | inhibition at 10 µM ([4]; read-out: 5-HT2B % inhibition) [%] | inhibition at 10 µM (human 5-HT7 receptor) [%] | inhibition at 10 µM [1] [%] | inhibition at 10 µM ([5]; read-out: 5-HT2C % inhibition) [%] | inhibition at 10 µM [2] [%] | inhibition at 10 µM (recombinant human 5-HT1A) [%] | inhibition at 10 µM ([3]; read-out: 5-HT6 % inhibition) [%] | also measured |
| --- | --- | --- | --- | --- | --- | --- | --- | --- |
| CN1CCc2c(c3cc(F)ccc3n2C#Cc2ccccc2)C1 [1.1(2)] | – | – | – | – | – | – | – | 5-HT7 % inhibition (human 5-HT7 receptor): 59%; 5-HT2A % inhibition [1]: 99%; 5-HT1A % inhibition (recombinant human 5-HT1A): 30%; 5-HT1B % inhibition [2]: 6%; 5-HT6 % inhibition [3]: 95% |
| Cc1ccc2c(c1)c1c(n2C#Cc2ccccc2)CCN(C)C1 [1.1(4)] | – | – | – | – | – | – | – | 5-HT2B % inhibition ([4]; 10 µM ligand): 86%; 5-HT7 % inhibition (human 5-HT7 receptor): 93%; 5-HT2A % inhibition [1]: 99%; 5-HT1A % inhibition (recombinant human 5-HT1A): 38%; 5-HT2C % inhibition ([5]; 10 µM ligand): 99%; 5-HT1B % inhibition [2]: 26%; 5-HT6 % inhibition [3]: 97% |
| CN1CCc2c(c3cc(C(F)(F)F)ccc3n2CCc2ccccc2)C1 [1.1.2(1-7)·HCl, 2-methyl-8-trifluoromethyl-5-phenethyl-1,2,3,4-tetrahydro-1H-pyrido[4,3-b]indole] | 89 | 94 | 91 | 92 | 13 | – | – | – |
| CN1CCc2c(c3cc(F)ccc3n2CC(O)c2ccccc2)C1 (stereo not shown) [1.1.2(1-9)] | – | – | – | – | – | – | – | 5-HT7 % inhibition (human 5-HT7 receptor): 84%; 5-HT2A % inhibition [1]: 97%; 5-HT1A % inhibition (recombinant human 5-HT1A): -2%; 5-HT1B % inhibition [2]: 5%; 5-HT6 % inhibition [3]: 89% |
| Cc1ccc2c(c1)c1c(n2CC(O)c2ccccc2)CCN(C)C1 (stereo not shown) [1.1.2(1-10), 2,8-dimethyl-5-[(2-phenyl-2-hydroxy)ethyl]-1,2,3,4-tetrahydro-1H-pyrido[4,3-b]indole] | – | – | – | – | – | – | – | 5-HT7 % inhibition (human 5-HT7 receptor): 96%; 5-HT2A % inhibition [1]: 97%; 5-HT1A % inhibition (recombinant human 5-HT1A): 24%; 5-HT1B % inhibition [2]: 41%; 5-HT6 % inhibition [3]: 102% |
| COc1ccc(CCn2c3c(c4cc(C)ccc42)CN(C)CC3)cc1 [1.1.2(1-14)·HCl] | 97 | 100 | – | 97 | 52 | 57 | 108 | – |
| Cc1ccc2c(c1)c1c(n2CCc2ccc(F)cc2)CCN(C)C1 [1.1.2(1-16)·HCl] | 91 | 95 | 99 | 99 | 36 | 37 | 103 | – |
| Cc1ccc2c(c1)c1c(n2CCc2ccc(C(F)(F)F)cc2)CCN(C)C1 [1.1.2(1-18)·HCl] | – | 103 | 100 | 99 | 45 | 53 | 94 | inhibition at 10 µM [4, 6]: 87% |
| Cc1ccc2c(c1)c1c(n2CCc2ccccc2)CCCN(C)C1 [1.2.2(1-2)·HCl] | – | 97 | 89 | – | – | 20 | – | inhibition at 10 µM [4, 6]: 84% |
| Cc1ccc(CCn2c3c(c4cc(F)ccc42)CN(C)CCC3)cn1 [1.2.2(4-2)·2HCl] | – | – | – | – | 60 | – | – | inhibition at 1 µM ([5]; read-out: 5-HT2C % inhibition): 78%; inhibition at 1 µM ([3]; read-out: 5-HT6 % inhibition): 84% |
| Cc1ccc2c(c1)c1c(n2CCCc2ccccc2)CCN(C)C1 [1.3.3(2)·HCl] | 95 | – | 99 | 98 | 31 | – | 103 | – |
| CN1CCc2c(c3cc(F)ccc3n2CCCc2ccccc2)C1 [1.3.3(8)·HCl] | 96 | 83 | 97 | 97 | 12 | -4 | 93 | – |
| CN1CCc2c(c3cc(F)ccc3n2Cc2ccccc2)C1 [1.9(3)·HCl] | 95 | 81 | 97 | 100 | 12 | – | 89 | – |
| Cc1ccc2c(c1)c1c(n2Cc2ccccc2)CCCN(C)C1 [1.10(4)·HCl] | 70 | 75 | 91 | 98 | 31 | 19 | 69 | – |
